Experimental data from patent publication US11142539B2, “Phosphinogold(I) complexes and methods of treating cancer” (King Fahd University of Petroleum and Minerals, priority 2020, dated 2021).
“Also recorded” adds a separate entry of the source.

Tests used:
[1] = test system: HepG2 (human liver cancer) cell line; test: Cell Titer-Glo luminescence-based cell growth inhibition assay, HepG2; settings: HepG2 cells, 72 hours incubation, spread in brackets
Method: (§1) The cell growth inhibition effects of gold(I) complexes 1-4 and cisplatin were measured by the Cell Titer-Glo® luminescence-based assay against the A549 (human lung carcinoma), HeLa (human cervical cancer), and HepG2 (human liver cancer) cell lines according to manufacturer's protocol. Briefly, the cell suspensions were added to each well of 384-w plate at a suitable density (total volume of 40 μL). The margin wells of plate were filled with PBS buffer. The gold(I) complexes were added at various concentrations in triplicate (10 μL solutions of the complex added to the plate), then the plate was incubated for 72 hours in 5% CO2 incubator at 37° C. After that the Cell Titer reagent was added to each tested well and stirred for 2 minutes on an orbital shaker. […] Luminescence signals were measured on PHERAstar Plus. […] The potential effect of the testing complexes on cell growth inhibition expressed as IC50 values was calculated by the formula below: Cell growth Inhibition %=100-100*(Luminescencecomplex)/(LuminescenceDMSO) Cell viability %=100*(Luminescencecomplex)/(LuminescenceDMSO)
(§2) The gold(I) complexes 1-4 and cisplatin were examined for their cell growth inhibition effects against A549, HeLa, and HepG2 human cancer cell lines using Cell Titer-Glo® luminescence-based assay. […]

[2] = test system: HeLa (human cervical cancer) cell line; test: Cell Titer-Glo luminescence-based cell growth inhibition assay, HeLa; settings: HeLa cells, 72 hours incubation, spread in brackets
Method: as §1, §2

[3] = test system: A549, HeLa, and HepG2 human cancer cell lines; test: Cell Titer-Glo cell growth inhibition, summary statements over all three cell lines; assay type: cell-based; settings: with respect to cisplatin
Method: as §1, §2

SMILES	IC50 [1] [µM]	IC50 [2] [µM]	inhibition of cell proliferation (in words) [3]
N.N.[Cl][Pt][Cl] [Cisplatin, cisplatin]	9.6	21.4	–
CN(C)C(=S)[S][Au][PH](c1ccccc1)(c1ccccc1)[C@@H]1CCCC[C@H]1N [gold(I) complex 2]	–	–	excellent inhibition of cell proliferation; also recorded: best inhibition among the three
N[C@@H]1CCCC[C@H]1[PH]([Au][Cl])(c1ccccc1)c1ccccc1 [gold(I) complex 1, [Au(ACP)Cl]]	–	–	excellent inhibition of cell proliferation
